Consider 30 compounds from patent US9675612B2, “Substituted thiazolopyrimidines” (BAYER PHARMA AKTIENGESELLSCHAFT, priority 2013, dated 2017).

SMILES strings stand for the structures.

Sequence of human full-length MKNK1 (Q9BUB5 other isoform, or with tags, fused parts or gaps T344D): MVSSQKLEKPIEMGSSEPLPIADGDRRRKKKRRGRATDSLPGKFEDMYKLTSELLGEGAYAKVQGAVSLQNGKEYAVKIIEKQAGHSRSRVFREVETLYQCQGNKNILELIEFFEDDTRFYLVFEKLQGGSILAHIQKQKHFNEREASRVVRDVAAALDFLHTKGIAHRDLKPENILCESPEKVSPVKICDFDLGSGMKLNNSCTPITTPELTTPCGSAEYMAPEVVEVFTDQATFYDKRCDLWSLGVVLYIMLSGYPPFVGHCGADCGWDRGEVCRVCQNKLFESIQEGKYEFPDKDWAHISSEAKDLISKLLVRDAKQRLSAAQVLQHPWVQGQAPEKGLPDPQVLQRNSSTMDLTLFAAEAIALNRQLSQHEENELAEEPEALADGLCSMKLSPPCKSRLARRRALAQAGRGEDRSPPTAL

The test has as its target human full-length MKNK1 (Homo sapiens (Human), UniProt Q9BUB5, T344D). Briefly: MKNK1 kinase high ATP assay (TR-FRET). The settings on record: high ATP (2 mM final), 15 min preincubation with MKNK1, TR-FRET. The class given is biochemical. As to the method:
MKNK1 Kinase High ATP Assay
MKNK1-inhibitory activity at high ATP of compounds of the present invention after their preincubation with MKNK1 was quantified employing the TR-FRET-based MKNK1 high ATP assay as described in the following paragraphs.
As substrate for the kinase reaction the biotinylated peptide biotin-Ahx-[…] (C-terminus in amide form) was used, which can be purchased e.g. from the company Biosyntan (Berlin-Buch, Germany).
For the assay 50 nL of a 100 fold concentrated solution of the test compound in DMSO was pipetted into a black low volume 384 well microtiter plate (Greiner Bio-One, Frickenhausen, Germany), 2 μL of a solution of MKNK1 in aqueous assay buffer [50 mM HEPES pH 7.5, 5 mM MgCl2, 1.0 mM dithiothreitol, 0.005% (v/v) Nonidet-P40 (Sigma)] was added and the mixture was incubated for 15 min at 22° C. to allow pre-binding of the test compounds to the enzyme before the start of the kinase reaction. Then the kinase reaction was started by the addition of 3 μL of a solution of adenosine-tri-phosphate (ATP, 3.3 mM=>final conc. in the 5 μL assay volume is 2 mM) and substrate (0.1 μM=>final conc. in the 5 μL assay volume is 0.06 μM) in assay buffer and the resulting mixture was incubated for a reaction time of 30 min at 22° C. The concentration of MKNK1 was adjusted depending of the activity of the enzyme lot and was chosen appropriate to have the assay in the linear range, typical concentrations were in the range of 0.003 μg/mL. The reaction was stopped by the addition of 5 μL of a solution of TR-FRET detection reagents (5 nM streptavidine-XL665 [Cisbio Bioassays, Codolet, France] and 1 nM anti-ribosomal protein S6 (pSer236)-antibody from Invitrogen [#44921G] and 1 nM LANCE EU-W1024 labeled ProteinG [Perkin-Elmer, product no. AD0071]) in an aqueous EDTA-solution (100 mM EDTA, 0.1% (w/v) bovine serum albumin in 50 mM HEPES pH 7.5).
The resulting mixture was incubated for 1 h at 22° C. to allow the formation of complex between the phosphorylated biotinylated peptide and the detection reagents. Subsequently the amount of phosphorylated substrate was evaluated by measurement of the resonance energy transfer from the Eu-chelate to the streptavidine-XL.
One may read the IC50 as the concentration that inhibits the measured activity by half. Read a high IC50 as weaker potency. Take `O=c1[nH]c2ccc(Nc3ncnc4sc(CC5CC5)nc34)cc2s1` [Example 1, 6-{[2-(Cyclopropylmethyl)[1,3]thiazolo[5,4-d]pyrimidin-7-yl]amino}-1,3-benzothiazol-2(3H)-one]: the IC50 stood at 37 nM.
Next, `O=c1[nH]c2ccc(Nc3ncnc4sc(C5CCC5)nc34)cc2s1` [Example 2, 6-[(2-Cyclobutyl[1,3]thiazolo[5,4-d]pyrimidin-7-yl)amino]-1,3-benzothiazol-2(3H)-one]: 87 nM; `COc1cc2[nH]ncc2cc1Nc1ncnc2sc(Cc3ccccc3)nc12` [Example 4, 2-Benzyl-N-(6-methoxy-1H-indazol-5-yl)[1,3]thiazolo[5,4-d]pyrimidin-7-amine]: 20 nM; `COCc1nc2c(Nc3cc4cn[nH]c4cc3OC)ncnc2s1` [Example 5, N-(6-Methoxy-1H-indazol-5-yl)-2-(methoxymethyl)[1,3]thiazolo[5,4-d]pyrimidin-7-amine]: 25 nM.
In the case of `COc1cc2[nH]c(=O)sc2cc1Nc1ncnc2sc(C3CCCCC3)nc12` [Example 7, 6-[(2-Cyclohexyl[1,3]thiazolo[5,4-d]pyrimidin-7-yl)amino]-5-methoxy-1,3-benzothiazol-2(3H)-one], the IC50 stood at 354 nM.
In the case of `c1nc(Nc2ccc3[nH]ncc3c2)c2nc(C3CCCCC3)sc2n1` [Example 8, 2-Cyclohexyl-N-(1H-indazol-5-yl)[1,3]thiazolo[5,4-d]pyrimidin-7-amine] it was 56 nM.
Next, `c1nc(Nc2ccc3[nH]ncc3c2)c2nc(CC3CC3)sc2n1` [Example 9, 2-(Cyclopropylmethyl)-N-(1H-indazol-5-yl)[1,3]thiazolo[5,4-d]pyrimidin-7-amine]: 36 nM; `c1nc(Nc2ccc3[nH]ncc3c2)c2nc(C3CCC3)sc2n1` [Example 10, 2-Cyclobutyl-N-(1H-indazol-5-yl)[1,3]thiazolo[5,4-d]pyrimidin-7-amine]: 54 nM.
As for `c1ccc(Cc2nc3c(Nc4ccc5[nH]ncc5c4)ncnc3s2)cc1` [Example 11, 2-Benzyl-N-(1H-indazol-5-yl)[1,3]thiazolo[5,4-d]pyrimidin-7-amine], the IC50 was found to be 35 nM.
In the case of `CC1(O)CN(C(=O)CCc2nc3c(Nc4ccc5[nH]ncc5c4)ncnc3s2)C1` [Example 14, 1-(3-Hydroxy-3-methylazetidin-1-yl)-3-[7-(1H-indazol-5-ylamino)[1,3]thiazolo[5,4-d]pyrimidin-2-yl]propan-1-one] it was 126 nM; in that of `COc1cc2[nH]ncc2cc1Nc1ncnc2scnc12` [Example 15, N-(6-Methoxy-1H-indazol-5-yl)[1,3]thiazolo[5,4-d]pyrimidin-7-amine], 47 nM; in that of `c1nc(Nc2ccc3[nH]ncc3c2)c2ncsc2n1` [Example 16, N-(1H-Indazol-5-yl)[1,3]thiazolo[5,4-d]pyrimidin-7-amine], 186 nM.
In the case of `O=c1[nH]c2ccc(Nc3ncnc4scnc34)cc2s1` [Example 19, 6-([1,3]Thiazolo[5,4-d]pyrimidin-7-ylamino)-1,3-benzothiazol-2(3H)-one] it was 159 nM; in that of `COc1cc2[nH]ncc2cc1Nc1ncnc2sc(COCc3ccccc3)nc12` [Example 20, 2-[(Benzyloxy)methyl]-N-(6-methoxy-1H-indazol-5-yl)[1,3]thiazolo[5,4-d]pyrimidin-7-amine], 36 nM; in that of `CN(C)C(=O)CCc1nc2c(Nc3ccc4[nH]ncc4c3)ncnc2s1` [Example 21, 3-[7-(1H-Indazol-5-ylamino)[1,3]thiazolo[5,4-d]pyrimidin-2-yl]-N,N-dimethylpropanamide], 100 nM.
`COc1cc2[nH]ncc2cc1Nc1ncnc2sc(CCc3ccccc3)nc12` [Example 22, N-(6-Methoxy-1H-indazol-5-yl)-2-(2-phenylethyl)[1,3]thiazolo[5,4-d]pyrimidin-7-amine] gave an IC50 of 38 nM.
In the case of `c1ccc(CCc2nc3c(Nc4ccc5[nH]ncc5c4)ncnc3s2)cc1` [Example 23, N-(1H-indazol-5-yl)-2-(2-phenylethyl)[1,3]thiazolo[5,4-d]pyrimidin-7-amine] it was 51 nM.
In the case of `COc1cc2[nH]c(=O)sc2cc1Nc1ncnc2sc(CCc3ccccc3)nc12` [Example 25, 5-Methoxy-6-{[2-(2-phenylethyl)[1,3]thiazolo[5,4-d]pyrimidin-7-yl]amino}-1,3-benzothiazol-2(3H)-one] it was 10000 nM; in that of `COc1cc2[nH]ncc2cc1Nc1ncnc2sc(CCCC(=O)N(C)C)nc12` [Example 26, 4-{7-[(6-Methoxy-1H-indazol-5-yl)amino][1,3]thiazolo[5,4-d]pyrimidin-2-yl}-N, N-dimethylbutanamide], 85 nM; in that of `COc1cc2[nH]c(=O)sc2cc1Nc1ncnc2sc(C(=O)N(C)C)nc12` [Example 28, 7-[(5-Methoxy-2-oxo-2,3-dihydro-1,3-benzothiazol-6-yl)amino]-N,N-dimethyl[1,3]thiazolo[5,4-d]pyrimidine-2-carboxamide], 1080 nM.
Next, `CCOc1cc2[nH]ncc2cc1Nc1ncnc2sc(C(=O)N(C)C)nc12` [Example 30, 7-[(6-Ethoxy-1H-indazol-5-yl)amino]-N, N-dimethyl[1,3]thiazolo[5,4-d]pyrimidine-2-carboxamide]: 42 nM.
Compound `O=C(c1nc2c(Nc3ccc4[nH]ncc4c3)ncnc2s1)N1CCCCC1` [Example 31, [7-(1H-Indazol-5-ylamino)[1,3]thiazolo[5,4-d]pyrimidin-2-yl](piperidin-1-yl)methanone] registered an IC50 of 188 nM.
Next, `O=C(c1nc2c(Nc3ccc4[nH]c(=O)sc4c3)ncnc2s1)N1CCCCC1` [Example 32, 6-{[2-(Piperidin-1-ylcarbonyl)[1,3]thiazolo[5,4-d]pyrimidin-7-yl]amino}-1,3-benzothiazol-2(3H)-one]: 137 nM.
Next, `COc1cc2[nH]ncc2cc1Nc1ncnc2sc(C(=O)N3CCCCC3)nc12` [Example 33, {7-[(6-Methoxy-1H-indazol-5-yl)amino][1,3]thiazolo[5,4-d]pyrimidin-2-yl}(piperidin-1-yl)methanone]: 17 nM; `CCOc1cc2[nH]ncc2cc1Nc1ncnc2sc(C(=O)N3CCCCC3)nc12` [Example 34, {7-[(6-Ethoxy-1H-indazol-5-yl)amino][1,3]thiazolo[5,4-d]pyrimidin-2-yl}(piperidin-1-yl)methanone]: 34 nM.
In the case of `CC(C)Oc1cc2[nH]ncc2cc1Nc1ncnc2sc(C(=O)N3CCCCC3)nc12` [Example 35, Piperidin-1-yl(7-{[6-(propan-2-yloxy)-1H-indazol-5-yl]amino}[1,3]thiazolo[5,4-d]pyrimidin-2-yl)methanone] it was 102 nM; in that of `COc1cc2[nH]ncc2cc1Nc1ncnc2sc(C(=O)N(C)CC(=O)N(C)C)nc12` [Example 38, N-[2-(Dimethylamino)-2-oxoethyl]-7-[(6-methoxy-1H-indazol-5-yl)amino]-N-methyl[1,3]thiazolo[5,4-d]pyrimidine-2-carboxamide], 136 nM; in that of `CN(C)C(=O)CCN(C)C(=O)c1nc2c(Nc3ccc4[nH]c(=O)sc4c3)ncnc2s1` [Example 41, N-[3-(Dimethylamino)-3-oxopropyl]-N-methyl-7-[(2-oxo-2,3-dihydro-1,3-benzothiazol-6-yl)amino][1,3]thiazolo[5,4-d]pyrimidine-2-carboxamide], 2750 nM.
The compound `CN(C)C(=O)c1nc2c(Nc3ccc4[nH]ncc4c3)ncnc2s1` [Example 43, 7-(1H-Indazol-5-ylamino)-N,N-dimethyl[1,3]thiazolo[5,4-d]pyrimidine-2-carboxamide] came in with an IC50 of 202 nM.
In the case of `COc1cc2[nH]ncc2cc1Nc1ncnc2sc(C(=O)N(C)CCC(=O)N(C)C)nc12` [Example 46, N-[3-(Dimethylamino)-3-oxopropyl]-7-[(6-methoxy-1H-indazol-5-yl)amino]-N-methyl[1,3]thiazolo[5,4-d]pyrimidine-2-carboxamide] it was 184 nM.
